# In US20250073164A1, “IONIZABLE DISULFIDE LIPIDS AND LIPID NANOPARTICLES DERIVED THEREFROM” (PROVIDENCE THERAPEUTICS HOLDINGS INC., priority 2021, published 2025):
# Key:
# [1] = Lipids stability characterized by 1H NMR; assay type: physicochemical; parameters: key: +: the lipid is stable; Minor: the main characteristic peaks of the lipid are present, no major change of the ^1H NMR spectrum is observed, but some extra peaks appearance observed; Major: main the characteristic peaks of the lipid underwent transformation, some peaks can be missing or decreased in intensity, impurity peaks either increased in size or represent main peaks, as observed on ^1H NMR
# Protocol: The lipids stability was evaluated by ^1H NMR at −20° C. and at room temperature. “+” means the lipid is stable, “Minor” means the main characteristic peaks of the lipid are present, no major change of the ^1H NMR spectrum is observed, but some extra peaks appearance observed. “Major” means main the characteristic peaks of the lipid underwent transformation, some peaks can be missing or decreased in intensity, impurity peaks either increased in size or represent main peaks, as observed on ^1H NMR. “n.d.” means “not determined”.
# [2] = Surface pKa of LNPs, TNS fluorescence assay; assay type: physicochemical; conditions: LNPs formed with the ionizable lipid, pH at 50% LNP protonation
# Protocol: The surface pKa values of LNPs were determined as follows. Briefly, solutions of 100 mM citrate buffer at, 100 mM Tris-HCl and 50 mM sodium bicarbonate-sodium hydroxide buffer were titrated to pH values varying by 1 from 3.0 to 11.0 and aliquoted into a clear 96-well plate. LNPs and 2-(p-toluidinyl)naphthalene-6-sulfonic acid (TNS) were diluted into these solutions to obtain a final concentration of 20 μM lipid and 6 μM TNS, respectively. Fluorescence intensity was read on a Glowmax discover plate reader at an excitation of 322 nm and an emission of 430 nm. pKa values were calculated as the pH corresponding to 50% LNP protonation, assuming minimum and maximum fluorescence values corresponded to zero and 100% protonation, respectively.
# [3] = tested on: gp33 and gp34 specific T-cells; test: In vivo activity of LNPs: specific CD8 T-cells expansion in mice; conditions: LNPs prepared using the compound, payload 3-GP mRNA (epitopes encoding gp33/34)
# Protocol: LNPs prepared using compounds 100, 105, 106 and 109 respectively were evaluated for specific CD8 T-cells expansion in mice where the payload is 3-GP mRNA (comprising epitopes encoding gp33/34).
"Lipids stability characterized by 1H NMR, Room Temperature 1 week ([1]; room temperature)","Lipids stability characterized by 1H NMR, Room Temperature 2 months ([1]; room temperature)","Lipids stability characterized by 1H NMR, Room Temperature 2 weeks ([1]; room temperature)","Lipids stability characterized by 1H NMR, Room Temperature 3 months ([1]; room temperature, 3 months)","Lipids stability characterized by 1H NMR, Room Temperature 3 weeks ([1]; room temperature)","Lipids stability characterized by 1H NMR, Room Temperature 4 weeks ([1]; room temperature)","Lipids stability characterized by 1H NMR, At −20° C. ([1]; 3 months)",Surface pKa [2],SMILES,specific CD8 T-cells expansion [3]
+,Major,Minor,Major,Minor,Minor,+,7.5,CCCCCCCCCCCCCCC(/C=C(\C)CCC=C(C)C)OC(=O)CSSCC(=O)OCCCN(C)C (centres unmarked) [Compound 100],effective at expanding both gp33 and gp34 specific T-cells
+,+,+,–,+,+,+,7.0,"CCCCC/C=C\CCC(CCCCCCCCCCCCCC)C(CCCCCCCCCCCCCC)OC(=O)CCSSCCC(=O)OCCCN(C)C (centres unmarked) [Compound 109, 3-(dimethylamino)propyl-3-[[3-[2-[(Z)-non-3-enyl]-1-tetradecyl-hexadeoxy]-3-oxo-propyl]disulfanyl]propanoate]",effective at expanding both gp33 and gp34 specific T-cells
